Laboratory results: patent US7605227B2, “Melanoma antigen peptide analogues” (MannKind Corporation, priority 2005, dated 2009)
Entries after “also recorded” stand apart in the source; their conditions may differ.

Assays:
HLA-A*0201 = HLA-A*0201 (Homo sapiens, UniProt P04439, D140Y/D185E/D98H/E176V/E277Q/G131W/G231S/I119V/I121R/I166T/I218V/L300P/L318F/N151K/N90K/P208A/P217A/Q86G/Q94H/R138H/R169H/T345S); test: iTopia off-rate assay (T1/2); type: binding; conditions: PRAME425-433 and analogs
Method: Avidin-coated microtiter plates containing class I monomer loaded with a so-called placeholder peptide were used to evaluate peptide binding, affinity and off-rate. […] Assay buffers, anti-MHC-FITC mAb and beta2-microglobulin and control peptides were also supplied with the kits.
The plates were then incubated on the allele-specific monomer plates at 37° C. The plates were measured at multiple time points (0, 0.5, 1, 1.5, 2, 4, 6 and 8 hrs) for relative fluorescence intensity. The time required for 50% of the peptide to dissociate from the MHC monomer is defined as the T1/2 value (hrs).
The binding and offrate (T1/2) was determined for six native epitopes and their analogs which were designed to enhance the immune response.

[1] = system: native epitope coated cells; test: pCTLR2 prime, PRAME peptide boost, in vivo cytotoxicity (CFSE); design: species or system HHD transgenic mice
[2] = system: T cells that recognized native PSMA288-297 peptide; test: Peptide immunization with PSMA analogs, IFN-gamma ELISPOT against native peptide; type: in vivo, HHD transgenic mice; conditions: peptide + pI:C intranodal immunization
Method: Groups of HHD transgenic mice (n=8) were immunized with peptide (natural epitope PSMA288-297, or analogs bearing substitutions at primary or secondary anchor residues) by direct inoculation into the inguinal lymph nodes, with 25 μg in 25 μl of PBS+12.5 μg of pI:C to each lymph node at day 0, 3, 14 and 17.
Mice were sacrificed at 10 days after the last boost, and splenocytes prepared and assessed for IFN-γ production by ELISPOT analysis. […] At 48 hours after incubation, the assay was developed and the frequency of cytokine-producing T cells that recognized native PSMA288-297 peptide was automatically counted. The data is represented in FIG. 22 as the number of spot forming colonies/well (mean of triplicates±SD). […] To the extent that the poor immunogenicity of the native epitope reflects tolerance, the improved activity of these analogs represents tolerance breaking.

[3] = system: T cells that recognized the PSMA288-297 peptide; test: Plasmid prime, PSMA peptide boost, IFN-gamma ELISPOT; type: in vivo, HHD transgenic mice; conditions: versus natural peptide boost
Method: Two groups of HHD transgenic mice (n=8) were immunized with plasmid expressing PSMA288-297 by direct inoculation into the inguinal lymph nodes with 25 μg in 25 μl of PBS to each lymph node at day 0, 3, 14 and 17. This was followed by two peptide boosts (25 μg) at day 28 and 31 with either the natural peptide or the I297V analog.
Mice were sacrificed at 10 days after the last boost, and splenocytes prepared and assessed for IFN-γ production by ELISPOT analysis. […] At 48 hours after incubation, the assay was developed and the frequency of cytokine-producing T cells that recognized the PSMA288-297 peptide was automatically counted. The data is represented in FIG. 23 as frequency of specific T cells normalized to 0.5 million responder cells (mean of triplicates+SD).

PSMA+ A2+ LnCap cells = test: PSMA immunization, ex vivo cytotoxicity against human tumor cells; type: in vivo, HHD transgenic mice
Method: HHD transgenic mice (n=4) were immunized with PSMA288-297 peptide (25 μg in 25 μl of PBS, plus 12.5 μg of pI:C to each lymph node) at day 0, 3, 14 and 17. One week after the boost, splenocytes were stimulated ex vivo with the native PSMA288-297 peptide and tested against ^51Cr-labeled human tumor cells (PSMA^+ A2^+ LnCap cells, or as negative control, LnCap cells coated with MHC class I-blocking antibody) at various E:T ratios.
HHD transgenic mice (n=4) were immunized with plasmid expressing the PSMA288-297 epitope by direct inoculation into the inguinal lymph nodes with 25 μg in 25 μl of PBS to each lymph node at day 0, 3, 14 and 17. This was followed by two peptide boosts (same amount) at day 28 and 31, with the analog I297V. One week after the boost, splenocytes were stimulated ex vivo with the native PSMA288-297 peptide and tested overnight against ^51Cr-labeled human tumor cells (Lncap, A2^+ PSMA^+; or 624.38 A2^+ PSMA^− or control 624.28 cells A2^− PSMA^−) at various E:T ratios.

Row | Substance | half time of dissociation (HLA-A*0201) [h] | in vivo cytotoxicity against native epitope, in words [1] | IFN-γ ELISPOT response against native epitope, in words [2] | frequency of native epitope-specific T cells (ELISPOT), in words [3] | ex vivo cytotoxicity against PSMA+ human tumor cells, in words (PSMA+ A2+ LnCap cells)
1 | S425F: PRAME425-433 analog with Phe for Ser at P1 (FLLQHLIGL) [Peptide S425F] | 17.7 | capable of expanding the immunity against the native epitope |  |  | 
2 | GLPSIPVHPV [PSMA 288-297(I297V)] |  |  | increased priming of immune responses against the native epitope | considerably higher | cytotoxic immunity against a PSMA^+ human tumor line; also recorded: effective in mediating cytotoxicity against LNCAP
